Results published in US20110201648A1, “POLY-HETEROARYL DERIVATIVES FOR THE TREATMENT OF CANCER” (INSTITUT CURIE, priority 2008, published 2011).

Row | Structure (SMILES) | melting point [°C]
1 | c1ccc(-c2ncc(-c3cccc(-c4cnc(-c5ccccn5)o4)n3)o2)nc1 [compound 1, 2,6-Bis[2-(pyridin-2-yl)oxazol-5-yl]pyridine] | 242 to 245
2 | c1cc(-c2cnc(-c3cccc(-c4cnco4)n3)o2)cc(-c2cnc(-c3cccc(-c4cnco4)n3)o2)c1 [compound 4, 1,3-Bis(2-(6-(oxazol-5-yl)pyridin-2-yl)oxazol-5-yl)benzene] | > 250
3 | c1cc(-c2cnco2)cc(-c2ncc(-c3cccc(-c4cnc(-c5cccc(-c6cnco6)c5)o4)n3)o2)c1 [compound 5, 2,6-Bis(2-(3-(oxazol-5-yl)phenyl)oxazol-5-yl)pyridine] | 254 to 256
4 | c1cc(-c2cnc(-c3ccc(-c4cnco4)o3)o2)nc(-c2cnc(-c3ccc(-c4cnco4)o3)o2)c1 [compound 6, 2,6-Bis(2-(5-(oxazol-5-yl)furan-2-yl)oxazol-5-yl)pyridine] | > 250
